In ChEMBL document CHEMBL3881530, “Compounds and methods for inhibiting NHE-mediated antiport in the treatment of disorders associated with fluid retention or salt overload and gastrointestinal tract disorders” (2013):
pIC50: −log10 of the molar value.

What was measured:
Rattus norvegicus [1] = assay: Effect on fecal water content in Sprague-Dawley rat at 3 mg/kg administered via oral gavage measured after 16 hrs relative to control; format: functional
Rattus norvegicus [2] = assay: Decrease in urinary sodium level in Sprague-Dawley rat administered via oral gavage measured after 16 hrs by ion chromatographic analysis; format: functional
[3] = Drug recovery in Sprague-Dawley rat feces at 0.1 mg/kg administered via oral gavage measured after 72 hrs by LC/MS/MS analysis; format: ADME, organism-based; details: faeces, read-out: Drug recovery
[4] = Cmax in Sprague-Dawley rat at 2.2 mg/kg administered via oral gavage measured up to 4 hrs by LC/MS/MS analysis; format: ADME, organism-based; set-up: dose 2.2 mg/kg, route oral; details: in vivo
[5] = AUC in Sprague-Dawley rat at 2.2 mg/kg administered via oral gavage measured up to 4 hrs by LC/MS/MS analysis; format: ADME, organism-based; set-up: time < 4 hr, dose 2.2 mg/kg, route oral; details: in vivo
[6] = molecular target: T1, Sodium/hydrogen exchanger 2 (Homo sapiens, UniProt Q9UBY0); assay: Inhibition of NHE-2 (unknown origin)
T1 sequence (Q9UBY0 whole entry): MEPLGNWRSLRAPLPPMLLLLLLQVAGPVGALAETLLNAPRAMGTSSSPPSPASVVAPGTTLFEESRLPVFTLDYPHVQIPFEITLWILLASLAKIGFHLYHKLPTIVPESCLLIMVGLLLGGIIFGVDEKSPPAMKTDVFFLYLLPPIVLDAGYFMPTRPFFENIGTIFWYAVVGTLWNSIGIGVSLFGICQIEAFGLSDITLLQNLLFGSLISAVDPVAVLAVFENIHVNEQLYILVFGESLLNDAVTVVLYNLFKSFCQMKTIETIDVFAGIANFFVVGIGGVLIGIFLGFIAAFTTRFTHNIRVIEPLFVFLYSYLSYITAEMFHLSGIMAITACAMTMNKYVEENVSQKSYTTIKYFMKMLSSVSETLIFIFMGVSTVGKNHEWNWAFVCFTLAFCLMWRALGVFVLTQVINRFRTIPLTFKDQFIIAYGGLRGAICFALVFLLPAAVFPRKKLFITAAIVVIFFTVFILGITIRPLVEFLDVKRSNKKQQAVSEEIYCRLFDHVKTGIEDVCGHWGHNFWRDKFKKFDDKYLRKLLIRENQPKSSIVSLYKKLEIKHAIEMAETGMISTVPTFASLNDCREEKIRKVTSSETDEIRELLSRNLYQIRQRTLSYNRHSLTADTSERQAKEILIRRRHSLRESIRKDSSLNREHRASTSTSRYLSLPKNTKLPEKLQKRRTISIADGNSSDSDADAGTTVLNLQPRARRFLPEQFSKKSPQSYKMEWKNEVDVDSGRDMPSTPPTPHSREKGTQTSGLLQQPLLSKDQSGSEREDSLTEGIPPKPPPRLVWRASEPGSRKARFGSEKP

[7] = molecular target: T2, Sodium/hydrogen exchanger 3 (Homo sapiens, UniProt P48764); assay: Inhibition of NHE-3 (unknown origin)
T2 sequence (P48764 whole entry): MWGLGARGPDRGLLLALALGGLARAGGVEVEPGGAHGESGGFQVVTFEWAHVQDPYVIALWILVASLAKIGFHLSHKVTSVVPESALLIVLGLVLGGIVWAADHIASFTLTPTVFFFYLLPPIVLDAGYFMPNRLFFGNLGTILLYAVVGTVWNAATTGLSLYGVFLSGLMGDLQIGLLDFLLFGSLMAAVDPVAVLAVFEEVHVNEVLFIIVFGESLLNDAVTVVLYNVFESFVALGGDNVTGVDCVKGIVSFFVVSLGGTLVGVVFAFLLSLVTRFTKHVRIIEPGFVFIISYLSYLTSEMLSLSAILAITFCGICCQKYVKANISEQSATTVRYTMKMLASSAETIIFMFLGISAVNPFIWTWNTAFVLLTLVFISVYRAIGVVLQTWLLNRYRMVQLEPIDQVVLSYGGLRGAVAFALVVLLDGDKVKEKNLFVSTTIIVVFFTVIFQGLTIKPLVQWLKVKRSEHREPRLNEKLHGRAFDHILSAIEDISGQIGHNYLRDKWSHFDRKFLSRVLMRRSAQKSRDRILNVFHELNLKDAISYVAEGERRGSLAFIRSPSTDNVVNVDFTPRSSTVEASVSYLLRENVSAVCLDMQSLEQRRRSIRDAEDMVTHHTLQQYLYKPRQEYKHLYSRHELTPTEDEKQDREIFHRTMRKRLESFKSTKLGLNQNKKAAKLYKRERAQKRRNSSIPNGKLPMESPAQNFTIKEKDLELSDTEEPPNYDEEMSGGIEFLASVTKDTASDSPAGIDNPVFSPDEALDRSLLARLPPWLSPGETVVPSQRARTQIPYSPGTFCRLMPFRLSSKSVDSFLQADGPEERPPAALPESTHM

[8] = Cmax in Sprague-Dawley rat at 28 mg/kg administered via oral gavage measured up to 4 hrs by LC/MS/MS analysis; format: ADME, organism-based; set-up: dose 28 mg/kg, route oral; details: in vivo
[9] = AUC in Sprague-Dawley rat at 28 mg/kg administered via oral gavage measured up to 4 hrs by LC/MS/MS analysis; format: ADME, organism-based; set-up: time < 4 hr, dose 28 mg/kg, route oral; details: in vivo
[10] = molecular target: Sodium/hydrogen exchanger 1 (Homo sapiens, UniProt P19634); assay: Inhibition of NHE-1 (unknown origin)
[11] = molecular target: T3, Sodium/hydrogen exchanger 5 (Homo sapiens, UniProt Q14940); assay: Inhibition of NHE-5 (unknown origin)
T3 sequence (Q14940 whole entry): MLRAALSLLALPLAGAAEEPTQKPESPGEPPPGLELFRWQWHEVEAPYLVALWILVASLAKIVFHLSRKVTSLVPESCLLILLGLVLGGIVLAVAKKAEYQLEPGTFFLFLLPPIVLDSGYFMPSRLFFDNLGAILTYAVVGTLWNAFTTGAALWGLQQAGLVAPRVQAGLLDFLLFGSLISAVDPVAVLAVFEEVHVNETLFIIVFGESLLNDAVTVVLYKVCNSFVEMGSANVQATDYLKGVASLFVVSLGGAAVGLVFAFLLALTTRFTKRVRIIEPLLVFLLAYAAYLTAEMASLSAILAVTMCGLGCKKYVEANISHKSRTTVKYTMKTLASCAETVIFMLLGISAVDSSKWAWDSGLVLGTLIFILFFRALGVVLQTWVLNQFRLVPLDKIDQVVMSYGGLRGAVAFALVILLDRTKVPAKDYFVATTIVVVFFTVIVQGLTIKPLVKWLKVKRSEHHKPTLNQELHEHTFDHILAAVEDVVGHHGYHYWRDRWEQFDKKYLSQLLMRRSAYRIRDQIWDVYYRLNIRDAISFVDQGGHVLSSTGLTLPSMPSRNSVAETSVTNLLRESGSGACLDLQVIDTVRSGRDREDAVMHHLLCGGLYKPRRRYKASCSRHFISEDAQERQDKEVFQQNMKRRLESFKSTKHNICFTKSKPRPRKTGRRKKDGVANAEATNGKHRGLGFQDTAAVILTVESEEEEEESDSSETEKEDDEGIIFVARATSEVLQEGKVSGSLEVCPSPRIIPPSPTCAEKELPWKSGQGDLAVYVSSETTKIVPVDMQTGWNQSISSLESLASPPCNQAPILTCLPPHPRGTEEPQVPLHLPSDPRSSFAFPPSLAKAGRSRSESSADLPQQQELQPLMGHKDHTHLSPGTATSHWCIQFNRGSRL

Sequence of Sodium/hydrogen exchanger 1 (P19634 whole entry): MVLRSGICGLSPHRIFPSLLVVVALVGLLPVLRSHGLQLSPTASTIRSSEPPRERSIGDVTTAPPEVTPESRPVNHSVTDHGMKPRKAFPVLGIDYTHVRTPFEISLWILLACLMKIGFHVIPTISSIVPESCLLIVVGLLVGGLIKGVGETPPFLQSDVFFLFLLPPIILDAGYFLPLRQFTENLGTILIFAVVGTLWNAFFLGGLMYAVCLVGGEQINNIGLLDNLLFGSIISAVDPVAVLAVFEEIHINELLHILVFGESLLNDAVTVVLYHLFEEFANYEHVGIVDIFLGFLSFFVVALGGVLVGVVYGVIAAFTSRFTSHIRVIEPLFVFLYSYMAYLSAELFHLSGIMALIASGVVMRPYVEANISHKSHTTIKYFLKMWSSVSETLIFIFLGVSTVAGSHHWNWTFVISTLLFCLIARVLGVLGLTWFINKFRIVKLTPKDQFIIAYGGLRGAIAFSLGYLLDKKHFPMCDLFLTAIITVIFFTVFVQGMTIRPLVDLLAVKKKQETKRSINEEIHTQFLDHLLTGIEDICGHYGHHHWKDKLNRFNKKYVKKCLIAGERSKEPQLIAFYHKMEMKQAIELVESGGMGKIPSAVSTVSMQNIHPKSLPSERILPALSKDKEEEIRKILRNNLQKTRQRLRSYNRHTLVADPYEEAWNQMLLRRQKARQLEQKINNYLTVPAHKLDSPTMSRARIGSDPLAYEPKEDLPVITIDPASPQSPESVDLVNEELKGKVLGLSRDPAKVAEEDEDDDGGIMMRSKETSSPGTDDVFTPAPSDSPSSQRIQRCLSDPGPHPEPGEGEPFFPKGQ

CN1Cc2c(Cl)cc(Cl)cc2[C@H](c2ccc(S(=O)(=O)NCCOCCOCCNC(=O)COCC(=O)NCCOCCOCCNS(=O)(=O)c3ccc([C@@H]4CN(C)Cc5c(Cl)cc(Cl)cc54)cc3)cc2)C1.Cl.Cl (single isomer, unassigned)
Activity (Rattus norvegicus [1]): 127% | Activity (Rattus norvegicus [2]): Dose-dependent effect

CN1Cc2c(Cl)cc(Cl)cc2[C@H](c2cccc(S(=O)(=O)NCCOCCOCCNC(=O)NCCCCNC(=O)NCCOCCOCCNS(=O)(=O)c3cccc([C@@H]4CN(C)Cc5c(Cl)cc(Cl)cc54)c3)c2)C1.Cl.Cl (single isomer, unassigned) [TENAPANOR HYDROCHLORIDE]
Activity (Rattus norvegicus [1]): 134% | dose excreted at 72 h [3]: 90.5 to 93.8%

CN1Cc2c(Cl)cc(Cl)cc2C(c2cccc(NC(=O)N[C@@H](CC(=O)O)C(=O)O)c2)C1 (some centres undefined)
Cmax [4]: 2.4 ng/mL | AUC at 4 h [5]: 5 ng·h/mL

CC1(C)[C@H](C(=O)N=C(N)N)[C@H]1c1cccc2c1CCO2
pIC50 [6]: 5.74 | pIC50 [7]: < 4.52

CN1Cc2c(Cl)cc(Cl)cc2[C@H](c2ccc(S(=O)(=O)NCCOCCOCCNC(=O)CCC(=O)NCCOCCOCCNS(=O)(=O)c3ccc([C@@H]4CN(C)Cc5c(Cl)cc(Cl)cc54)cc3)cc2)C1.Cl.Cl (single isomer, unassigned)
Activity (Rattus norvegicus [1]): 124%

CN1Cc2c(Cl)cc(Cl)cc2C(c2ccc(S(=O)(=O)NCCOCCOCCNC(=O)CCC(=O)NCCOCCOCCNS(=O)(=O)c3ccc(C4CN(C)Cc5c(Cl)cc(Cl)cc54)cc3)cc2)C1 (centres undefined)
Activity (Rattus norvegicus [1]): 121%

CN1Cc2c(Cl)cc(Cl)cc2C(c2cccc(NCCOCCOCCOCCNC(=O)C(O)C(O)C(=O)NCCOCCOCCOCCNc3cccc(C4CN(C)Cc5c(Cl)cc(Cl)cc54)c3)c2)C1 (centres undefined)
Cmax [8]: 23 ng/mL | AUC at 4 h [9]: 19 ng·h/mL

Cc1ccc(F)cc1[C@H]1C/C(=N\N=C(N)N)c2c(C)cccc2C1
pIC50 [10]: 4.46 | pIC50 [6]: 6.51 | pIC50 [7]: < 4.52

C/C(=C\c1cccc(/C=C(\C)C(=O)NC(=N)N)c1)C(=O)N=C(N)N
pIC50 [10]: 8.70 | pIC50 [6]: 7.15 | pIC50 [7]: 5.88

CN1Cc2c(Cl)cc(Cl)cc2C(c2cccc(S(=O)(=O)NCCOCCOCCOCCNC(=O)C(O)C(O)C(=O)NCCOCCOCCOCCNS(=O)(=O)c3cccc(C4CN(C)Cc5c(Cl)cc(Cl)cc54)c3)c2)C1 (single isomer, unassigned)
Activity (Rattus norvegicus [1]): 125%

CN1Cc2c(Cl)cc(Cl)cc2C(c2ccc(S(=O)(=O)NCCOCCOCCNC(=O)C(=O)NCCOCCOCCNS(=O)(=O)c3ccc(C4CN(C)Cc5c(Cl)cc(Cl)cc54)cc3)cc2)C1 (centres undefined)
Cmax [8]: 8 ng/mL | AUC at 4 h [9]: 6 ng·h/mL

Cc1ccc(F)cc1[C@@H]1C/C(=N\N=C(N)N)c2c(C)cccc2C1
pIC50 [10]: 9.00 | pIC50 [6]: 6.37 | pIC50 [7]: 4.96

CN1Cc2c(Cl)cc(Cl)cc2C(c2cccc(S(=O)(=O)NCCOCCOCCNC(=O)Nc3ccc(NC(=O)NCCOCCOCCNS(=O)(=O)c4cccc(C5CN(C)Cc6c(Cl)cc(Cl)cc65)c4)cc3)c2)C1 (centres undefined)
Activity (Rattus norvegicus [1]): 120%

CN1Cc2c(Cl)cc(Cl)cc2C(c2ccc(S(=O)(=O)NCCOCCOCCNC(=O)Nc3ccc(NC(=O)NCCOCCOCCNS(=O)(=O)c4ccc(C5CN(C)Cc6c(Cl)cc(Cl)cc65)cc4)cc3)cc2)C1 (centres undefined)
Activity (Rattus norvegicus [1]): 114%

CC(C)c1ccc(C(=O)NC(=N)N)cc1S(C)(=O)=O [CARIPORIDE]
pIC50 [10]: 5.47 to 7.52 | pIC50 [6]: 4.21 to 5.37 | pIC50 [11]: < 4.52 | pIC50 [7]: 4.00 to 6.00

CN1Cc2c(Cl)cc(Cl)cc2C(c2cccc(S(=O)(=O)NCCOCCOCCNC(=O)NCCCCNC(=O)NCCOCCOCCNS(=O)(=O)c3cccc(C4CN(C)Cc5c(Cl)cc(Cl)cc54)c3)c2)C1 (centres undefined)
Activity (Rattus norvegicus [1]): 128%

CN1Cc2c(Cl)cc(Cl)cc2[C@H](c2cccc(S(=O)(=O)NCCOCCOCCNC(=O)Nc3ccc(NC(=O)NCCOCCOCCNS(=O)(=O)c4cccc([C@@H]5CN(C)Cc6c(Cl)cc(Cl)cc65)c4)cc3)c2)C1.Cl.Cl (single isomer, unassigned)
Activity (Rattus norvegicus [1]): 130% | dose excreted at 72 h [3]: 75.8 to 104%

C/C(=C\c1cc(F)c(Oc2ccc(S(=O)(=O)NCCP(=O)(O)O)cc2)c(F)c1)C(=O)N=C(N)N
Cmax [4]: 9 ng/mL | AUC at 4 h [5]: 23 ng·h/mL

CN1Cc2c(Cl)cc(Cl)cc2C(c2ccc(S(=O)(=O)NCCOCCOCCNC(=O)COCC(=O)NCCOCCOCCNS(=O)(=O)c3ccc(C4CN(C)Cc5c(Cl)cc(Cl)cc54)cc3)cc2)C1 (centres undefined)
Activity (Rattus norvegicus [1]): 118%

CN1Cc2c(Cl)cc(Cl)cc2[C@H](c2ccc(S(=O)(=O)NCCOCCOCCOCCNC(=O)NCCOCCOCCOCCNS(=O)(=O)c3ccc([C@@H]4CN(C)Cc5c(Cl)cc(Cl)cc54)cc3)cc2)C1 (mixture of isomers)
Activity (Rattus norvegicus [1]): 120%

Cc1cc(-n2cccc2)c(S(C)(=O)=O)cc1C(=O)NC(=N)N [ENIPORIDE]
pIC50 [10]: 6.42 to 8.30 | pIC50 [6]: 4.77 to 5.70 | pIC50 [11]: < 4.52 | pIC50 [7]: 3.34 to 4.00

CN1Cc2c(Cl)cc(Cl)cc2C(c2cccc(S(=O)(=O)NCCOCCOCCNC(=O)c3ccc(C(=O)NCCOCCOCCNS(=O)(=O)c4cccc(C5CN(C)Cc6c(Cl)cc(Cl)cc65)c4)cc3)c2)C1 (centres undefined)
Activity (Rattus norvegicus [1]): 117%

CN1Cc2c(Cl)cc(Cl)cc2[C@H](c2cccc(S(=O)(=O)NCCOCCOCCOCCNC(=O)NCCCCNC(=O)NCCOCCOCCOCCNS(=O)(=O)c3cccc([C@@H]4CN(C)Cc5c(Cl)cc(Cl)cc54)c3)c2)C1 (single isomer, unassigned)
Activity (Rattus norvegicus [1]): 118% | Activity (Rattus norvegicus [2]): Dose-dependent effect
